Assay results taken from patent US20260070945A1, “MACROCYCLIC IMMUNOMODULATORS” (Bristol-Myers Squibb Company, priority 2022, published 2026).
pIC50: −log10 of the molar value. *1 amine or outer side, *2 acyl side, *3 side chain or, on linkers, in order; H or OH if unused. Where a SMILES comes first, the peptide text is derived from it. Bridges are numbered along the chain shown (N, C = ends). [ ]: non-standard residue; d: D form. The star is where a group is joined. ξ: configuration not given here. Phe(4-CONH2) = NC(=O)c1ccc(C[C@H](N)C(=O)O)cc1; Phe(4-COOH) = N[C@@H](Cc1ccc(C(=O)O)cc1)C(=O)O; d(γGlu) = O=C(O)[C@@H](CCC(=O)[*:2])N[*:1]; Bip = N[C@@H](Cc1ccc(-c2ccccc2)cc1)C(=O)O; NH(CH2)14COOH = O=C(O)CCCCCCCCCCCCCCN*; Phe(3-Me) = Cc1cccc(C[C@H](N)C(=O)O)c1; γGlu = O=C(O)[C@H](CCC(=O)[*:2])N[*:1]; Val(3-OH) = CC(C)(O)[C@H](N)C(=O)O; 4Pal = N[C@@H](Cc1ccncc1)C(=O)O; Cha = N[C@@H](CC1CCCCC1)C(=O)O; Cit = NC(=O)NCCC[C@H](N)C(=O)O; Ile(3ξ) = CCC(C)[C@H](N)C(=O)O; Thr(3ξ) = CC(O)[C@H](N)C(=O)O; 12Ado = NCCCCCCCCCCCC(=O)O; NMeS = CN[C@@H](CO)C(=O)O; Carboxymethyl = O=C(O)C*; NMeA = CN[C@@H](C)C(=O)O; Orn = NCCC[C@H](N)C(=O)O; Aun = NCCCCCCCCCCC(=O)O; Dab = NCC[C@H](N)C(=O)O; AEEA = NCCOCCOCC(=O)O

molecular target: T1, PD-1/PD-L1 interaction (PE-labeled human PD-L1-Ig binding to Jurkat cell line over-expressing human PD-1) (Homo sapiens, UniProt Q15116); test: Jurkat-PD-1 Cell Binding High-Content Screening Assay (CBA); settings: Jurkat-hPD-1 cells, PE-labeled PD-L1-Ig 20 nM final; read-out: Jurkat HPD1 PDL1 IC50
T1 construct: expressed in transfected cells; host or cells: Jurkat
T1 sequence (Q15116 25-288): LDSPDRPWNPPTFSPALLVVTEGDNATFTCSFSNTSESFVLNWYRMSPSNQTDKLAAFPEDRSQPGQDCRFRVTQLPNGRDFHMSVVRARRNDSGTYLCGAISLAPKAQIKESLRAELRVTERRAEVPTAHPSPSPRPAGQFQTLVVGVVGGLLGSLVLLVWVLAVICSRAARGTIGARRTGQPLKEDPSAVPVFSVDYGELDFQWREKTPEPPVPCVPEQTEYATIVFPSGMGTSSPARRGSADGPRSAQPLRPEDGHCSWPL
Procedure, shortened: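 In this imaging assay, cells in 10% FCS medium see compound for 2 h at 37 °C and then labeled ligand at 20 nM final for 1 h. Paraformaldehyde fixation, Hoechst 33342 staining and dPBS washes precede image capture.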

Row | pIC50 | Structure (SMILES)
1 | 8.03 | CC(C)C[C@@H]1NC(=O)[C@H](Cc2c[nH]c3ccccc23)NC(=O)[C@H](CC(=O)O)NC(=O)[C@H](Cc2ccncc2)NC(=O)[C@H](Cc2ccc(OCC(=O)O)cc2)NC(=O)CSC[C@@H](C(=O)N[C@@H](CCN)C(=O)NCCCCCCCCCCC(=O)O)NC(=O)[C@H](CCCN)NC(=O)[C@H](C(C)C)NC(=O)[C@H](CC2CCCCC2)NC(=O)[C@H](CCN)NC(=O)[C@@H](CC(C)C)NC(=O)[C@H](C)N(C)C(=O)[C@H](C(C)C)NC(=O)[C@H](Cc2ccc(-c3ccccc3)cc2)NC1=O [Example 1210] ({CH2CO}-Y(Carboxymethyl)[4Pal]DWL[Bip]V[NMeA][dL][Dab][Cha]V[Orn]C[Dab][Aun]-OH; thioether N-14)
2 | 7.34 | Cc1cccc(C[C@@H]2NC(=O)[C@H](CC(=O)O)NC(=O)[C@H](Cc3ccncc3)NC(=O)[C@H](Cc3ccc(OCC(=O)O)cc3)NC(=O)CSC[C@@H](C(=O)N[C@@H](CCCN)C(=O)NCCOCCOCC(=O)NCCCCCCCCCCC(=O)O)NC(=O)[C@H]([C@@H](C)O)NC(=O)[C@H](C(C)C)NC(=O)[C@H](CC3CCCCC3)NC(=O)[C@H](CC(N)=O)NC(=O)[C@@H](CC(C)C)NC(=O)[C@H](C)N(C)C(=O)[C@H](Cc3ccc(OCC(=O)O)cc3)NC(=O)[C@H](Cc3ccc(-c4ccccc4)cc3)NC(=O)[C@H](Cc3ccc(OCC(=O)O)cc3)NC2=O)c1 [Example 1358] ({CH2CO}-Y(Carboxymethyl)[4Pal]D[Phe(3-Me)]Y(Carboxymethyl)[Bip]Y(Carboxymethyl)[NMeA][dL]N[Cha]VTC[Orn][AEEA][Aun]-OH; thioether N-14)
3 | 7.31 | Cc1cccc(C[C@@H]2NC(=O)[C@H](CC(=O)O)NC(=O)[C@H](Cc3ccc(C(=O)O)cc3)NC(=O)[C@H](Cc3ccc(OCC(=O)O)cc3)NC(=O)CSC[C@@H](C(=O)NCC(=O)N[C@@H](CCC(=O)O)C(=O)NCCCCCCCCCCC(=O)O)NC(=O)[C@H](CO)NC(=O)[C@H](C(C)C)NC(=O)[C@H](CC(C)C)NC(=O)[C@H](CC(N)=O)NC(=O)[C@@H](CC(C)C)NC(=O)[C@H](C)N(C)C(=O)[C@H](C(C)C)NC(=O)[C@H](Cc3ccc(-c4ccccc4)cc3)NC(=O)[C@H](CC(C)C)NC2=O)c1 [Example 1005] ({CH2CO}-Y(Carboxymethyl)[Phe(4-COOH)]D[Phe(3-Me)]L[Bip]V[NMeA][dL]NLVSCGE[Aun]-OH; thioether N-14)
4 | 6.18 | CC(C)C[C@H]1NC(=O)[C@H](C)N(C)C(=O)[C@H](Cc2ccc(OCC(=O)O)cc2)NC(=O)[C@H](Cc2ccc(-c3ccccc3)cc2)NC(=O)[C@H](Cc2ccc(OCC(=O)O)cc2)NC(=O)[C@H](Cc2c[nH]c3ccccc23)NC(=O)[C@H](CC(=O)O)NC(=O)[C@H](Cc2ccc(OCC(=O)O)cc2)NC(=O)[C@H]([C@@H](C)O)NC(=O)CSC[C@@H](C(=O)N[C@@H](CCCN)C(=O)NCCOCCOCC(=O)NCCCCCCCCCCC(=O)O)NC(=O)[C@H](CCC(=O)O)NC(=O)[C@H](C(C)C)NC(=O)[C@H](CC2CCCCC2)NC(=O)[C@H](CC(N)=O)NC1=O [Example 1388] ({CH2CO}-TY(Carboxymethyl)DWY(Carboxymethyl)[Bip]Y(Carboxymethyl)[NMeA][dL]N[Cha]VEC[Orn][AEEA][Aun]-OH; thioether N-14)
5 | 7.95 | CC(C)C[C@@H]1NC(=O)[C@H](Cc2c[nH]c3ccccc23)NC(=O)[C@H](CC(=O)O)NC(=O)[C@H](Cc2ccncc2)NC(=O)[C@H](Cc2ccc(OCC(=O)O)cc2)NC(=O)CSC[C@@H](C(=O)N[C@@H](CCCNC(=N)N)C(=O)NCCOCCOCC(=O)NCCCCCCCCCCC(=O)O)NC(=O)[C@H](CO)NC(=O)[C@H](C(C)C)NC(=O)[C@H](CC2CCCCC2)NC(=O)[C@H](CCN)NC(=O)[C@@H](CC(C)C)NC(=O)[C@H](C)N(C)C(=O)[C@H](C(C)C)NC(=O)[C@H](Cc2ccc(-c3ccccc3)cc2)NC1=O [Example 1092] ({CH2CO}-Y(Carboxymethyl)[4Pal]DWL[Bip]V[NMeA][dL][Dab][Cha]VSCR[AEEA][Aun]-OH; thioether N-14)
6 | 7.76 | Cc1cccc(C[C@@H]2NC(=O)[C@H](CC(=O)O)NC(=O)[C@H](Cc3ccc(C(N)=O)cc3)NC(=O)[C@H](C(C)O)NC(=O)CSC[C@@H](C(=O)N[C@@H](CCN)C(=O)NCCOCCOCC(=O)NCCCCCCCCCCC(=O)O)NC(=O)[C@H](CCC(=O)O)NC(=O)[C@H](C(C)C)NC(=O)[C@H](CC3CCCCC3)NC(=O)[C@H](CCN)NC(=O)[C@@H](CC(C)C)NC(=O)[C@H](C)N(C)C(=O)[C@H](Cc3ccc(OCC(=O)O)cc3)NC(=O)[C@H](Cc3ccc(-c4ccccc4)cc3)NC(=O)[C@H](Cc3ccc(C(=O)O)cc3)NC2=O)c1 (stereo partly drawn) [Example 2480] ({CH2CO}-[Thr(3ξ)][Phe(4-CONH2)]D[Phe(3-Me)][Phe(4-COOH)][Bip]Y(Carboxymethyl)[NMeA][dL][Dab][Cha]VEC[Dab][AEEA][Aun]-OH; thioether N-14)
7 | 6.80 | Cc1cccc(C[C@@H]2NC(=O)[C@H](CC(=O)O)NC(=O)[C@H](Cc3ccc(OCC(=O)O)cc3)NC(=O)[C@H](Cc3ccncc3)NC(=O)CSC[C@@H](C(=O)N[C@@H](CCN)C(=O)NCCOCCOCC(=O)NCCCCCCCCCCC(=O)O)NC(=O)[C@H](CCC(=O)O)NC(=O)[C@H](C(C)(C)O)NC(=O)[C@H](CC3CCCCC3)NC(=O)[C@H](CCN)NC(=O)[C@@H](CC(C)C)NC(=O)[C@H](C)N(C)C(=O)[C@H](Cc3ccc(OCC(=O)O)cc3)NC(=O)[C@H](Cc3ccc(-c4ccccc4)cc3)NC(=O)[C@H](Cc3ccc(OCC(=O)O)cc3)NC2=O)c1 [Example 1425] ({CH2CO}-[4Pal]Y(Carboxymethyl)D[Phe(3-Me)]Y(Carboxymethyl)[Bip]Y(Carboxymethyl)[NMeA][dL][Dab][Cha][Val(3-OH)]EC[Dab][AEEA][Aun]-OH; thioether N-14)
8 | 7.89 | Cc1cccc(C[C@@H]2NC(=O)[C@H](CC(=O)O)NC(=O)[C@H](Cc3ccc(OCC(=O)O)cc3)NC(=O)[C@H](C(C)O)NC(=O)CSC[C@@H](C(=O)N[C@@H](CCCN)C(=O)N[C@@H](CO)C(=O)NCCCCCCCCCCCC(=O)O)NC(=O)[C@H](C(C)O)NC(=O)[C@H](C(C)C)NC(=O)[C@H](CC3CCCCC3)NC(=O)[C@H](CCN)NC(=O)[C@@H](CC(C)C)NC(=O)[C@H](C)N(C)C(=O)[C@H](CCCNC(N)=O)NC(=O)[C@H](Cc3ccc(-c4ccccc4)cc3)NC(=O)[C@H](C(C)C)NC2=O)c1 (stereo partly drawn) [Example 2412] ({CH2CO}-[Thr(3ξ)]Y(Carboxymethyl)D[Phe(3-Me)]V[Bip][Cit][NMeA][dL][Dab][Cha]V[Thr(3ξ)]C[Orn]S[12Ado]-OH; thioether N-14)
9 | 7.73 | Cc1cccc(C[C@@H]2NC(=O)[C@H](CC(=O)O)NC(=O)[C@H](Cc3ccc(OCC(=O)O)cc3)NC(=O)[C@H](CO)N(C)C(=O)CSC[C@@H](C(=O)NCCOCCOCC(=O)NCCCCCCCCCCC(=O)O)NC(=O)[C@H](CCCNC(=N)N)NC(=O)[C@H](C(C)C)NC(=O)[C@H](CC3CCCCC3)NC(=O)[C@H](CCN)NC(=O)[C@@H](CC(C)C)NC(=O)[C@H](C)N(C)C(=O)[C@H](C(C)C)NC(=O)[C@H](Cc3ccc(-c4ccccc4)cc3)NC(=O)[C@H](CC(C)C)NC2=O)c1 [Example 2277] ({CH2CO}-[NMeS]Y(Carboxymethyl)D[Phe(3-Me)]L[Bip]V[NMeA][dL][Dab][Cha]VRC[AEEA][Aun]-OH; thioether N-14)
10 | 7.68 | CCC(C)[C@@H]1NC(=O)[C@H](Cc2ccc(-c3ccccc3)cc2)NC(=O)[C@H](CC(C)C)NC(=O)[C@H](Cc2c[nH]c3ccccc23)NC(=O)[C@H](CC(=O)O)NC(=O)[C@H](Cc2ccc(C(=O)O)cc2)NC(=O)[C@H](Cc2ccc(OCC(=O)O)cc2)NC(=O)CSC[C@@H](C(=O)NCCOCCOCC(=O)NCCCCCCCCCCC(=O)O)NC(=O)[C@H](CCCNC(=N)N)NC(=O)[C@H](C(C)C)NC(=O)[C@H](CC2CCCCC2)NC(=O)[C@H](CCN)NC(=O)[C@@H](CC(C)C)NC(=O)[C@H](CO)N(C)C1=O (stereo partly drawn) [Example 2279] ({CH2CO}-Y(Carboxymethyl)[Phe(4-COOH)]DWL[Bip][Ile(3ξ)][NMeS][dL][Dab][Cha]VRC[AEEA][Aun]-OH; thioether N-14)

same assay, conditions: PE-labeled PD-L1-Ig 20 nM final, Jurkat-hPD-1 cells; read-out: Jurkat HPD1 PDL1 IC50

Row | pIC50 | Structure (SMILES)
11 | 8.59 | Cc1cccc(C[C@@H]2NC(=O)[C@H](CC(=O)O)NC(=O)[C@H](Cc3ccc(OCC(=O)O)cc3)NC(=O)[C@H]([C@@H](C)O)NC(=O)CSC[C@@H](C(=O)N[C@@H](CCN)C(=O)NCCOCCOCC(=O)NCCCCCCCCCCCC(=O)O)NC(=O)[C@@H](CCC(=O)O)NC(=O)[C@H](C(C)C)NC(=O)[C@H](CC3CCCCC3)NC(=O)[C@H](CCN)NC(=O)[C@@H](CC(C)C)NC(=O)[C@H](C)N(C)C(=O)[C@H](Cc3ccc(OCC(=O)O)cc3)NC(=O)[C@H](Cc3ccc(-c4ccccc4)cc3)NC(=O)[C@H](Cc3ccc(OCC(=O)O)cc3)NC2=O)c1 [Example 2668] ({CH2CO}-TY(Carboxymethyl)D[Phe(3-Me)]Y(Carboxymethyl)[Bip]Y(Carboxymethyl)[NMeA][dL][Dab][Cha]V[dE]C[Dab][AEEA][12Ado]-OH; thioether N-14)
12 | 6.73 | CCC(C)[C@@H]1NC(=O)[C@H](Cc2ccc(-c3ccccc3)cc2)NC(=O)[C@H](C(C)C)NC(=O)[C@H](Cc2c[nH]c3ccccc23)NC(=O)[C@H](CC(=O)O)NC(=O)[C@H](Cc2ccc(C(=O)O)cc2)NC(=O)[C@H](Cc2cnc[nH]2)NC(=O)CSC[C@@H](C(=O)N[C@@H](CCN)C(=O)NCCOCCOCC(=O)N[C@@H](CCC(=O)N[C@H](CCC(=O)NCCCCCCCCCCCCCCC(=O)O)C(=O)O)C(=O)O)NC(=O)[C@H](CCC(=O)O)NC(=O)[C@H](C(C)(C)O)NC(=O)[C@H](CC2CCCCC2)NC(=O)[C@H](CCN)NC(=O)[C@@H](CC(C)C)NC(=O)[C@H](C)N(C)C1=O (stereo partly drawn) [Example 2634] ({CH2CO}-H[Phe(4-COOH)]DWV[Bip][Ile(3ξ)][NMeA][dL][Dab][Cha][Val(3-OH)]EC[Dab][AEEA][γGlu][d(γGlu)]-{NH(CH2)14COOH}; thioether N-14)
